In assay [1] the target is PKA-RIIα (Homo sapiens, UniProt P13861). Description: Immunofluorescence of PKA-RIIα at centrosomes in human T cells. Further details: endogenous in cells; host or cells: human peripheral blood CD3+ T cells. Type of assay: cell-based. The note with it: human peripheral blood T cells. How it is done: Blots were developed by using Supersignal West Pico substrate (Pierce). For immunofluorescence polyclonal and monoclonal antibodies against RIα (Biogenesis), RIIα (Transduction laboratories) and AKAP450 (A24, Tasken et al., 2001, J. Biol. Chem, 276:21999-22002) were used as primary antibodies. Secondary antibodies (all Molecular Probes) were Alexa-488 conjugated anti-mouse and anti-rabbit IgG (both goat) and Alexa-555 anti-rabbit IgG (goat).
Sequence of PKA-RIIα (P13861 whole entry): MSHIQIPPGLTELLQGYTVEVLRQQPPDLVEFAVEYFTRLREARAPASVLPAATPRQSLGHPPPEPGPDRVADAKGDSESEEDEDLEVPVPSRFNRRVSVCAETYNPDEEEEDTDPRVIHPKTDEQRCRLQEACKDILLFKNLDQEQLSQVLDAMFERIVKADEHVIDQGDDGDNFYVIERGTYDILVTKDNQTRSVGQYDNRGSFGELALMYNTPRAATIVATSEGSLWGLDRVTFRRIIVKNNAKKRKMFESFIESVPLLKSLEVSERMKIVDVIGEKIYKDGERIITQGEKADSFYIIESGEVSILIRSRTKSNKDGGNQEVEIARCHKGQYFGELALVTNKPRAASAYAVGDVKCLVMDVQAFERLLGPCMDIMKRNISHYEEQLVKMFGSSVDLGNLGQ
Immunofluorescence analysis of cells was performed as previously described (Collas, P. et al., 1996, J. Cell Biol. 135, 1715-1725). RI was detected by using an anti-RI monoclonal antibody (Transduction Laboratories) as a primary antibody at a […] and Alexa-488 as a secondary antibody (1:600, Goat anti Mouse IgGs, Molecular Probes). Immunofluorescence was performed on Y1 cells attached to collagen/fibronectin coated coverslips. Mitochondria were stained using MitoTracker Red CMXRos (Molecular Probes) in fresh medium with incubation at 37° C. for 30 min prior to cell fixation. All cells were washed in PBS, fixed with 3% paraformaldehyde and permeabilised using 0.1% Triton X-100. […] Alternatively, fluorescently labeled cells were examined using a Leica TCS SP1 confocal fluorescence microscope (Leica, Heidelberg, Germany) equipped with an Ar (488 nm) and two He/Ne (543 and 633 nm) laser lines. […]

The target in assay [2] is T1, RI in lipid rafts of Jurkat T cells (Homo sapiens, UniProt P10644).
T1 construct: endogenous in cells; host or cells: Jurkat T cells
Description: PKA content of lipid rafts from transfected Jurkat T cells (densitometry). The note with it: n=1. Type of assay: cell-based. The method, then: Densitometric analysis. The densitometric analysis was performed using Scion Image (www.scioncorp.com) (Scion Coorperation, Mo., USA) or Quantity One version 4.5.0, (BioRad).
Cell cultures and transient transfections. The human leukemic T cell line Jurkat (clone E6.1), Jurkat TAg, a derivative of the Jurkat cell line stably transfected with the SV40 large T antigen (Clipstone, N. A., and Crabtree, G. R., 1992, Nature. 357:695-697) was cultured at 37° C. in RPMI medium (Gibco BRL) supplemented with 10% fetal calf serum, 2 mM glutamine, penicillin, streptomycin, 1 mM sodium pyruvate and nonessential amino acids. For transfections, cells (5×10^6) in 0.4 ml Opti-MEM were mixed with 40 μg of each DNA construct (GFP-MEME3 or GFP-Scrambled MEME3) in electroporation cuvettes with a 0.4-cm electrode gap (BioRad Laboratories) and subjected to an electric field of 250 V/cm with 960 μF capacitance. A total of 2×10^7 cells were transfected per DNA construct. The cells were expanded in complete medium and harvested after 20 h. The transfection efficiency was determined by microscopic analysis.
Immunoblot analysis. Immunocomplexes and lipid raft fractions were analysed on a 10, 15% or 4-20% PAGE and blotted onto PVDF membranes. […]
Lipid Raft Purification. […] The fractions were analysed by immunoblot analysis. […]

Consider “LEQYANQLADQIIKEATERRRRRRRRRrr [MEME3-Arg11]”, for which, in assay [1], the “displacement of PKA-RIIα from centrosomes” value is “no displacement of PKA-RIIα”.

For `CC[C@H](C)[C@H](NC(=O)[C@H](CCC(N)=O)NC(=O)[C@H](CC(=O)O)NC(=O)[C@H](C)NC(=O)[C@H](CC(C)C)NC(=O)[C@H](CCC(N)=O)NC(=O)[C@H](CC(N)=O)NC(=O)[C@H](C)NC(=O)[C@H](Cc1ccc(O)cc1)NC(=O)[C@H](CCC(N)=O)NC(=O)[C@H](CCC(=O)O)NC(=O)[C@@H](N)CC(C)C)C(=O)N[C@H](C(=O)N[C@@H](CCCCN)C(=O)N[C@@H](CCC(=O)O)C(=O)N[C@@H](C)C(=O)N[C@H](C(=O)N[C@@H](CCC(=O)O)C(=O)N[C@@H](CCCCNC(=O)c1ccc2c(c1)C(=O)OC21c2ccc(O)cc2Oc2cc(O)ccc21)C(N)=O)[C@@H](C)O)[C@@H](C)CC` [MEME3], the reduction of RI concentration in lipid rafts compared to SM3 in assay [2] was found to be 40%.

These data come from patent US20080248008A1, “Inhibitors of Protein Kinase a Anchoring” (priority 2004, published 2008).
